Tests used:
Assay in all cases: relative viability (nuclei count vs DMSO), 5 days (fraction); higher = more cells survive
[1] = compound: C1CC(C1)(C(=O)O)C(=O)O.[NH2-].[NH2-].[Pt+2] [Carboplatin] + Cc1nc(NC(=O)N2CCC[C@H]2C(N)=O)sc1-c1ccnc(C(C)(C)C(F)(F)F)c1 [Alpelisib] (partner 2 µM)
In short: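 Lung cancer cell lines were pin-tool dosed in 1536-well plates on the day after seeding, with either a lone drug or a fixed anchor-drug dose plus five library-drug doses (not always all listed) in √10 steps. Nuclei were counted on 4× images after 5 days. Relative viability is the ratio of treated-well to vehicle-well nuclei counts, with each value a median of duplicate plates.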

[2] = compound: NS(=O)(=O)OC[C@@H]1C[C@@H](n2ccc3c(N[C@H]4CCc5ccccc54)ncnc32)C[C@@H]1O [MLN4924]
In short: (§1)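 Only plates meeting two conditions passed: control CV below 25% and at least one doubling. Lung cancer cell lines, kept overnight at 37 °C in 1536-well plates, were pinned with five library-drug doses (not always all listed) √10 apart on vehicle-anchored plates and grown 5 days without medium change. A one-step fix, permeabilisation and Hoechst stain preceded 4× imaging and MetaXpress nuclear counting. Viability equals treated-well nuclei divided by vehicle-well nuclei, as the median over plates.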

[3] = compound: C1CC(C1)(C(=O)O)C(=O)O.[NH2-].[NH2-].[Pt+2] [Carboplatin]
In short: as §1

[4] = compound: CC[C@H](C)N1C=C(C2=C(C=C(C=C21)C3=CN=C(C=C3)N4CCNCC4)C(=O)NCC5=C(C=C(NC5=O)C)C)C [GSK126]
In short: as §1

| Cell Line | relative viability ([1]; first compound 0.08 µM) | relative viability ([1]; first compound 0.253 µM) | relative viability ([1]; first compound 0.8 µM) | relative viability ([1]; first compound 2.53 µM) | relative viability ([1]; first compound 8 µM) | relative viability ([2]; 0.04 µM) | relative viability ([2]; 0.1265 µM) | relative viability ([2]; 0.4 µM) | relative viability ([2]; 1.265 µM) | relative viability ([2]; 4 µM) | relative viability ([3]; 0.08 µM) | relative viability ([3]; 0.253 µM) | relative viability ([3]; 0.8 µM) | relative viability ([3]; 2.53 µM) | relative viability ([3]; 8 µM) | relative viability ([4]; 0.08 µM) | relative viability ([4]; 0.253 µM) | relative viability ([4]; 0.8 µM) | relative viability ([4]; 2.53 µM) | relative viability ([4]; 8 µM) |
| --- | --- | --- | --- | --- | --- | --- | --- | --- | --- | --- | --- | --- | --- | --- | --- | --- | --- | --- | --- | --- |
| NCI-H1793 | 0.874 | 0.645 | 0.561 | 0.751 | 0.588 | 0.91 | 0.982 | 1.01 | 0.473 | 0.361 | 0.968 | 0.98 | 0.908 | 0.906 | 1.1 | 1.07 | 0.948 | 0.826 | 1.11 | 0.855 |
| HCC-44 | 0.904 | 0.887 | 0.733 | 0.717 | 0.635 | 0.635 | 0.683 | 0.219 | 0.217 | 0.225 | 1.04 | 0.92 | 0.949 | 0.915 | 0.723 | 1.03 | 1 | 1.01 | 0.869 | 1.05 |
| NCI-H3122 | 0.773 | 0.862 | 0.869 | 0.762 | 0.764 | 0.92 | 0.585 | 0.325 | 0.139 | 0.135 | 1.01 | 1.01 | 1.02 | 1.01 | 0.968 | 1.03 | 1 | 0.966 | 1.02 | 1 |
| COR-L23 | 0.724 | 0.721 | 0.74 | 0.663 | 0.272 | 0.98 | 0.882 | 0.661 | 0.233 | 0.135 | 0.961 | 0.928 | 0.979 | 0.759 | 0.417 | 1.1 | 1.02 | 0.944 | 0.986 | 1.02 |
| 201T | 1.07 | 1.07 | 1.04 | 1.01 | 0.926 | 1.09 | 0.989 | 0.73 | 0.375 | 0.307 | 1.01 | 0.994 | 1.03 | 0.971 | 0.9 | 1.03 | 1.01 | 1.02 | 1.06 | 1.07 |
| NCI-H23 | 0.659 | 0.75 | 0.623 | 0.681 | 0.635 | 0.815 | 0.721 | 0.462 | 0.204 | 0.206 | 1.13 | 1.01 | 0.991 | 1.02 | 0.792 | 1.03 | 0.949 | 1.02 | 1.18 | 1.21 |
| LCLC-103H | 1.1 | 0.975 | 1.09 | 1 | 0.934 | 0.949 | 1.02 | 0.912 | 0.282 | 0.312 | 1.03 | 0.989 | 0.992 | 1.07 | 0.834 | 1.02 | 1.03 | 1.01 | 0.994 | 1.01 |

From the supplement of paper PMC10307832
